How the values were obtained:
[1] = test system: murine small intestinal IEC-6 cells; assay: Cytotoxic assay by MTT method; format: cell-based; conditions: for selectivity index (SI): CC50 (IEC-6) relative to IC50 (α-glucosidase)
Description: (§1) The cytotoxicity on murine small intestinal IEC-6 cells were assayed by MTT (3-[4,5-dimethyl thiazol-2-yl]-2,5-diphenyl tetrazolium bromide) method. The IEC-6 cells were cultured in Dulbecco’s modified Eagle’s medium (DMEM) supplemented with 5% fetal bovine serum (FBS) under a humidified atmosphere of 5% CO2 and 95% air at 37 °C. Cell suspension, 100 μL, at a density of 2 × 10^4 cell mL^−1 was plated in 96-well microtiter plates and exposed to different concentrations of compounds in triplicate for 72 h. The initial concentrations of compounds were 2 mg/mL in DMSO, and then were diluted into 625, 125, 25, 5, and 1 μg/mL with RPMI-1640 medium, respectively. The experiments were divided into blank control, testing compounds and the positive control groups, and each group was set up three parallels. Then, 10 μL of PBS containing MTT (final concentration: 0.5 mg/mL) was added to each well. After 4 h incubation at 37 °C, the supernatant was removed and 200 μL of DMSO was added to each well to solubilize the formazan crystals. After vigorous shaking, absorbance values were measured in a microplate reader (Bio-Rad, USA) at 570 nm. The cytotoxicity was represented at these concentrations as [(ODblank − ODdrug)/ODblank × 100%]. The CC50 value, defined as the compound concentration necessary to induce cell cytotoxicity by 50%, was calculated by SPSS (Statistical Product and Service Solutions) v19.0 software.

α-glucosidase [2] = assay: α-Glucosidase inhibitory effect assay with pNPG as substrate; format: biochemical; conditions: 37 °C, 15 min, pH 6.8, read-out: IC50, α-glucosidase inhibition
Description: The inhibitory effects were assayed as described preciously. The sample was dissolved in sodium phosphate buffer (PBS, pH 6.8) at three concentrations. A volume of 10 μL of the sample solution, 20 μL of PBS and 20 μL of […] p-nitrophenyl-α-D-glucopyranoside (pNPG) solution (in phosphate buffer) were mixed in a 96-well microplate and incubated at 37 °C for 5 min. […] After incubating at 37 °C for 15 min, the absorbance at 405 nm was recorded by a Spectra max 190 micro plate reader (Molecular Devices Inc.).

[3] = Cytotoxic assay by MTT method; format: cell-based, murine; conditions: murine, IEC-6 small intestinal cells, MTT, 72 h exposure; read-out: CC50, cytotoxicity on IEC-6 cell line
Description: as §1

α-glucosidase [4] = assay: Kinetics of α-glucosidase inhibition (Lineweaver-Burk plot analysis); format: biochemical; conditions: for mode of α-glucosidase inhibition: Lineweaver-Burk plot; for Ki: pNPG 0.5–2.0 mM, 37 °C, 15 min
Description: Optimal amounts of compounds 1 and 2 used were determined based on the enzyme inhibitory activity assay.

| Compound | selectivity index (SI) [1] | CC50 ([1]; MTT, 72 h exposure, read-out: CC50, cytotoxicity on IEC-6 cell line) [µM] | IC50 (α-glucosidase [2]) [µM] | CC50 at 72 h [3] [µM] | mode of α-glucosidase inhibition (α-glucosidase [4]) | Ki (α-glucosidase [4]) [µM] |
| --- | --- | --- | --- | --- | --- | --- |
| O=C1CC(O)(c2ccccc2)C(c2cc(O)cc(=O)o2)c2cccc(O)c21 (stereo not shown) [Compound 4, Wailupemycin E] | 7.6 | 2980 | 392 | – | – | – |
| O=C1C[C@](O)(c2ccccc2)[C@H](c2cc(O)c(Cc3c(O)cc(-c4c(-c5ccccc5)cc(O)c5c(O)cccc45)oc3=O)c(=O)o2)c2cccc(O)c21 [Compound 2, Wailupemycin I] | 158.5 | – | 8.3 | 1320 | competitive | 6 |
| O=C1C[C@](O)(c2ccccc2)[C@@H](c2cc(O)c(Cc3c(O)cc(-c4c(-c5ccccc5)cc(O)c5c(O)cccc45)oc3=O)c(=O)o2)c2cccc(O)c21 [Compound 1, Wailupemycin H] | 14.2 | – | 19.7 | 280 | competitive | 16.8 |
| O=C1CC(O)(c2ccccc2)C(c2cc(O)cc(=O)o2)c2cccc(O)c21 (stereo not shown) [Compound 3, Wailupemycin D] | 2.8 | – | 989 | 2750 | – | – |
| O=c1cc(O)cc(-c2c(-c3ccccc3)cc(O)c3c(O)cccc23)o1 [Compound 5, wailupemycin G] | 12.3 | – | 239 | 2950 | – | – |

— publication PMC4731795, “New α-glucosidase inhibitors from marine algae-derived Streptomyces sp. OUCMDZ-3434” (Scientific Reports, 2016)
